Broadly, the inhibition is how much of the control response was suppressed.

The values below come from patent publication KR20170078259A, “아이소스테비올을 포함하는 피부상태 개선용 조성물” (주식회사 엘지생활건강, priority 2015, dated 2017).

Entries after “also recorded” stand apart in the source; their conditions may differ.

In test [1] the target is T1, elastase derived from human leukocytes (사람의 백혈구 세포로부터 유래한 엘라스테이즈) (Homo sapiens, UniProt P08246).
T1 construct: 사람의 백혈구 세포로부터 유래한 엘라스테이즈를 사용하였고; from tissue; host or cells: human leukocytes
T1 sequence (P08246 30-267): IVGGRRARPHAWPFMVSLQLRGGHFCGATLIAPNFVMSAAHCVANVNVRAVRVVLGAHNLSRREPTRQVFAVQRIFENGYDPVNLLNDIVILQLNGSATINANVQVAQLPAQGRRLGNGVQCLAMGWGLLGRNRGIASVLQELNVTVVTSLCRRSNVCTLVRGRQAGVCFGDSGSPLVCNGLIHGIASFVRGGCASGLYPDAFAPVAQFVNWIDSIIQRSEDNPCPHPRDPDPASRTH
The test can be described thus: Elastase activity inhibition (MeOSuc-Ala-Ala-Pro-Val-pNA substrate). Format: biochemical. The settings on record: for elastase activity inhibition (in words): compared with quercetin; for enzyme activity: slope of absorbance at 405 nm.

Test [2] has as its system human-derived fibroblasts, type I collagen (인간 유래 섬유아세포, 제1형 콜라겐). The test can be described thus: Type I collagen synthesis promotion in human-derived fibroblasts (PICP EIA kit). In kind it is cell-based.
The test system of test [3] is B-16 mouse melanoma cell (쥐의 멜라노마 세포). Briefly: Total melanin increase in B-16 mouse melanoma cells (darkening effect). In kind it is cell-based. The settings on record: for melanin production: absorbance at 400 nm per 1×10^6 cells.
Test [4] can be described thus: Anti-glycation (L-arginine and glucose). In kind it is biochemical. The settings on record: for inhibition rate: 70 °C, 4 h, 420 nm.
[5] abbreviates: 10 ppm, room temperature, 20 min, n = 3, read-out: inhibition rate.

Consider `O=c1c(O)c(-c2ccc(O)c(O)c2)oc2cc(O)cc(O)c12` [Quercetin, reference compound], for which, in test [1] (setting [5]), the inhibition at 10 ppm worked out at 69.2%.

Turning to `O=C1O[C@H]([C@@H](O)CO)C(O)=C1O` [비타민C, reference compound], the activation at 52.85 ppm in test [2] (Homo sapiens, Fibroblast, vitamin C positive control, 52.85 ppm, 48 h, relative to negative control, n = 4, read-out: increase rate (type I collagen production)) was found to be 64.3%. The “type I collagen production” value in test [2] (vitamin C positive control, 52.85 ppm, 48 h, n = 4) amounted to 246.8 ng/mL.

Consider `C[C@@]12CC[C@@H]3[C@@](CC[C@H]4[C@@]3(C)CCC[C@@]4(C)C(=O)O)(CC1=O)C2` [화학식 1의 화합물, (4α,8β,13β)-13-Methyl-16-oxo-17-norkauran-18-oic acid], for which the melanin production was 0.662 abs in test [3] (1 ppm, 3 days) and 0.831 abs in test [3] (20 ppm as printed in table, 3 days). Moreover, the “total melanin increase effect (in words)” value in test [3] (10 ppm, compared with forskolin) is listed as 10 ppm에서도 상당히 우수한 멜라닌 총량 증가 효과. In addition, the activation at 1 ppm is 101% in test [3] (Mus musculus, 72 h, 1 ppm, 3 days, relative to control, read-out: increase rate (total melanin)) and 24.9% in test [2] (Homo sapiens, Fibroblast, 1 ppm, 48 h, relative to negative control, n = 4, read-out: increase rate (type I collagen production)). Further, in test [3] (Mus musculus, 72 h, 20 ppm as printed in table, 3 days, relative to control, read-out: increase rate (total melanin)), the activation at 20 ppm is 152%. In addition, the inhibition rate in test [4] (25 ppm) stood at 51.12%; in test [4] (50 ppm) it was 69.22%. Also, the “anti-glycation effect (in words)” value in test [4] (compared with aminoguanidine) is on record as “항당화 효과가 더욱 뛰어남”. Also, the “elastase activity inhibition (in words)” value in test [1] (10 ppm) was “엘라스테이즈 활성 저해 효과가 양성대조군인 퀘르세틴에 상응하는 정도로 높게 나타났으며”; in test [1] (20 ppm), “퀘르세틴보다 우수한 엘라스테이즈 활성 저해 효과가 나타나”. Also, the inhibition at 10 ppm in test [1] (setting [5]) was 55.8%. Besides, the enzyme activity is listed as 4.6 in test [1] (10 ppm, room temperature, 20 min, n = 3) and 3.2 in test [1] (20 ppm, room temperature, 20 min, n = 3). Further, in test [1] (20 ppm, room temperature, 20 min, n = 3, read-out: inhibition rate), the inhibition at 20 ppm stood at 69.2%. For the same compound, the “collagen synthesis effect (in words)” value in test [2] (1 and 10 ppm, compared with vitamin C) is “농도 의존적으로 콜라겐 합성량이 증가되었고; also recorded: 비타민C를 적용한 경우보다 더 낮은 농도에서 유사한 콜라겐 합성 효과를 나타내었다”. The “type I collagen production” value in test [2] (1 ppm, 48 h, n = 4) turned out to be 187.6 ng/mL; in test [2] (10 ppm, 48 h, n = 4) it was 265.5 ng/mL. In addition, in test [2] (Homo sapiens, Fibroblast, 10 ppm, 48 h, relative to negative control, n = 4, read-out: increase rate (type I collagen production)), the activation at 10 ppm is 76.8%.

The compound `N=C(N)NN` [Aminoguanidine, reference compound] gave an inhibition rate in test [4] (aminoguanidine positive control, 55 ppm) of 54.89%.

As to `C=C[C@@]1(C)CC(=O)[C@]2(O)[C@@]3(C)[C@@H](O)CCC(C)(C)[C@@H]3[C@H](O)[C@H](OC(C)=O)[C@@]2(C)O1` [Forskolin, reference compound], in test [3] (10 ppm, 3 days), the melanin production is given as 0.792 abs. In test [3] (Mus musculus, 72 h, 10 ppm, 3 days, relative to control, read-out: increase rate (total melanin)), the activation at 10 ppm stood at 140%.
